Laboratory results as given in paper PMC7468467, “Characterization of a Novel Chromosomal Class C β-Lactamase, YOC-1, and Comparative Genomics Analysis of a Multidrug Resistance Plasmid in Yokenella regensburgei W13” (Frontiers in Microbiology, 2020).

What follows are molecules tested against T1, YOC-1 (Yokenella regensburgei, UniProt A0AB38FXT7) (assay: nitrocefin hydrolysis inhibition, spectrophotometric). Details: 100 μM nitrocefin; 5 min preincubation; 37°C.
T1 construct: gene C7387_3136; signal peptide (residues 1-22) removed; pCold I in E. coli BL21, N-terminal His tag removed by enterokinase
T1 sequence (A0AB38FXT7 entry or part of it): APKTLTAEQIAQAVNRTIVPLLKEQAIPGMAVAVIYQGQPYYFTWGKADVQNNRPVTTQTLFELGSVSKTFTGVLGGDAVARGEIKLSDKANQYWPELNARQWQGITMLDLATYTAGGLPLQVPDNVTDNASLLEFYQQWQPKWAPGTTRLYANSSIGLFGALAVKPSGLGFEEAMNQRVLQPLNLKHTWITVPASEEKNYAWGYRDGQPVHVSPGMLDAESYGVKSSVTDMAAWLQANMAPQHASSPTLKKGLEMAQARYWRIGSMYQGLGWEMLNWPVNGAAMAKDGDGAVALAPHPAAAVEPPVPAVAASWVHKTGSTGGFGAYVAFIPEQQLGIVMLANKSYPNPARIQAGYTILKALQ
Format: biochemical
Molecule Nc1nc2c(ncn2[C@@H]2O[C@H](COP(=O)(O)O)[C@@H](O)[C@H]2O)c(=O)[nH]1 [GMP] has an IC50 of 81.73 ± 0.02 µM.
Molecule O=C(O)[C@H]1/C(=C/CO)O[C@@H]2CC(=O)N21 [clavulanic acid] has an IC50 of 57.33 ± 0.03 µM.
In the case of NC(=O)[C@@H]1CC[C@@H]2CN1C(=O)N2OS(=O)(=O)O [avibactam], the IC50 is reported as 0.00117 ± 0.0002 µM.
